Reference: patent EP3290412A1, “HIV-1 NUCLEOCAPSID INHIBITORS” (Università degli Studi di Siena, priority 2016, dated 2018)
Like-named read-outs stand apart in the source and are kept apart here.

How the values were obtained:
[1] = target: T1, full length (1-55) HIV-1 NCp7 (Human immunodeficiency virus type 1 group M subtype B, UniProt P12493); test: Electromobility Shift Assay (EMSA), competition for ssDNA binding; details: NCp7 300 nM, M13mp18 ssDNA; positive = >25% inhibition at 100µM
T1 construct: recombinant full length (1-55) HIV-1 NCp7 proteins; made in house
How it was run: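 Recombinant NL4-3 NCp7 (300 nM in the pre-mix) was combined with compound in 20 mM Tris-HCl pH 7.4, 2 mM MgCl2, 100 mM NaCl, 1 mM DTT, then M13mp18 ssDNA was added for 25 min at 37 °C. Complexes were run on 1% agarose/0.5x TBE and stained with SybrGold. IC50 is the concentration at which bound ssDNA migrated 50% of the bound–unbound distance (triplicate).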

[2] = system: HIV-1 reference strain NL4-3; test: MonoCycle assay (TZM-bl cells); type: cell-based
How it was run: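 TZM-bl cells (20,000/well) were infected with NL4-3 in the presence of five-fold serial inhibitor dilutions. After 48 h, cells were lysed and luciferase luminescence (RLU) was counted. IC50 was derived from the RLU data.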

NC(11-55) = NC(11-55) (Human immunodeficiency virus type 1, UniProt P12493); test: NC inhibition assay (NC-induced cTAR DNA destabilization, fluorescence); type: biochemical, HIV-1; details: for inhibition at 100 µM: single point screening, positive = >25% inhibition at 100µM
How it was run: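 Doubly labelled cTAR (0.1 µM, Alexa488/Dabcyl) pre-complexed with 1 µM Zn-loaded NC(11-55) for 15 min, then compound added for a further 15 min; run at 20 °C in Tris-HCl pH 7.5, 30 mM NaCl, 0.2 mM MgCl2. Fluorescence read at ex 480/em 520 nm. IC50 taken from dose-response fit of % inhibition of NC-induced fluorescence increase.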

[3] = Human immunodeficiency virus 1, NL43, TZM-bl, 48 h, read-out: Mono Cycle IC50 nM
[4] = cTAR DNA 0.1 µM, 1 µM NC(11-55), 20 °C, pH 7.5, read-out: NC inhibition IC50

Structure (SMILES) | EMSA screening results [1] | IC50 [2, 3] [nM] | IC50 (NC(11-55)) [µM] | inhibition at 100 µM (NC(11-55)) [%] | IC50 (NC(11-55); [4]) [µM] | IC50 ([2]; Human immunodeficiency virus 1, NL43, TZM-bl cells, NL4-3, 48 hours, read-out: Mono Cycle IC50) [nM]
C[C@@H](NC(=O)c1nc(-c2cccc(N)n2)nc(O)c1O)C1CCCCC1 [Compound 45, (R)-2-(6-aminopyridin-2-yl)-N-(1-cyclohexylethyl)-5,6-dihydroxypyrimidine-4-carboxamide] | Positive (A compound showing >25% inhibition when tested at 100µM concentration is considered as "positive") | > 50000 | 30.5 | > 25 |  | 
C[C@@H](NC(=O)c1nc(-c2ccc(CNCc3ccccc3)cn2)nc(O)c1O)C1CCCCC1 [Compound 53, (R)-2-(5-((benzylamino)methyl)pyridin-2-yl)-N-(1-cyclohexylethyl)-5,6-dihydroxypyrimidine-4-carboxamide] | Negative | 38100 | 7.5 | > 25 |  | 
C[C@@H](NC(=O)c1nc(-c2ccc(CO)cn2)nc(O)c1O)C1CCCCC1 [Compound 55, (R)-N-(1-cyclohexylethyl)-5,6-dihydroxy-2-(5-(hydroxymethyl)pyridin-2-yl)pyrimidine-4-carboxamide] | Positive (A compound showing >25% inhibition when tested at 100µM concentration is considered as "positive") | 9050 |  | > 25 | 40 | 
CC1CCCCC1NC(=O)c1nc(-c2ccccn2)nc(O)c1O (stereo not shown) [Compound 59, 5,6-dihydroxy-N-(2-methylcyclohexyl)-2-(pyridin-2-yl)pyrimidine-4-carboxamide] | Positive (A compound showing >25% inhibition when tested at 100µM concentration is considered as "positive") | > 50000 | 50 | > 25 |  | 
CCNCc1ccc(-c2nc(O)c(O)c(C(=O)N[C@H](C)C3CCCCC3)n2)nc1 [Compound 60, (R)-N-(1-cyclohexylethyl)-2-(5-((ethylamino)methyl)pyridin-2-yl)-5,6-dihydroxypyrimidine-4-carboxamide] | Negative | > 50000 | 3.5 | > 25 |  | 
C[C@@H](NC(=O)c1nc(-c2ccc(NC(=O)OC(C)(C)C)cn2)nc(O)c1O)C1CCCCC1 [Compound 61, tert-butyl (R)-(6-(4-((1-cyclohexylethyl)carbamoyl)-5,6-dihydroxypyrimidin-2-yl)pyridin-3-yl)carbamate] | Positive (A compound showing >25% inhibition when tested at 100µM concentration is considered as "positive") | 7180 |  | > 25 | 17 | 
CC(=O)Nc1ccc(-c2nc(O)c(O)c(C(=O)N[C@H](C)C3CCCCC3)n2)nc1 [Compound 62, (R)-2-(5-acetamidopyridin-2-yl)-N-(1-cyclohexylethyl)-5,6-dihydroxypyrimidine-4-carboxamide] | Positive (A compound showing >25% inhibition when tested at 100µM concentration is considered as "positive") | > 50000 | 15.5 | > 25 |  | 
CC(C)(CNC(=O)c1nc(-c2ccccn2)nc(O)c1O)C1CCCC1 [Compound 63, N-(2-cyclopentyl-2-methylpropyl)-5,6-dihydroxy-2-(pyridin-2-yl)pyrimidine-4-carboxamide] | Positive (A compound showing >25% inhibition when tested at 100µM concentration is considered as "positive") | 11800 | 7 | > 25 |  | 
C[C@H](CC1CCCCC1)NC(=O)c1nc(-c2ccccn2)nc(O)c1O [Compound 64, (R)-N-(1-cyclohexylpropan-2-yl)-5,6-dihydroxy-2-(pyridin-2-yl)pyrimidine-4-carboxamide] | Positive (A compound showing >25% inhibition when tested at 100µM concentration is considered as "positive") | 23700 | 14.5 | > 25 |  | 
CC(NC(=O)c1nc(-c2ccccn2)nc(O)c1O)C1CCCC1 (stereo not shown) [Compound 65, N-(1-cyclopentylethyl)-5,6-dihydroxy-2-(pyridin-2-yl)pyrimidine-4-carboxamide] | Positive (A compound showing >25% inhibition when tested at 100µM concentration is considered as "positive") | > 50000 | 47 | > 25 |  | 
COc1cc(-c2nc(O)c(O)c(C(=O)N[C@H](C)C3CCCCC3)n2)nc2ccccc12 [Compound 68, N-[(1R)-1-cyclohexylethyl]-2-(4-methoxyquinolin-2-yl)-5,6-bis(oxidanyl)pyrimidine-4-carboxamide] | Positive (A compound showing >25% inhibition when tested at 100µM concentration is considered as "positive") |  |  | > 25 |  | 44300
COc1ccnc(-c2nc(O)c(O)c(C(=O)N[C@@H](C)C3CCCCC3)n2)c1 [Compound 69, N-[(1S)-1-cyclohexylethyl]-2-(4-methoxypyridin-2-yl)-5,6-bis(oxidanyl)pyrimidine-4-carboxamide] | Positive (A compound showing >25% inhibition when tested at 100µM concentration is considered as "positive") | > 50000 | 49 | > 25 |  | 
C[C@@H](NC(=O)c1nc(-c2cc(N3CCN(C)CC3)ccn2)nc(O)c1O)C1CCCCC1 [Compound 76, (R)-N-(1-cyclohexylethyl)-5,6-dihydroxy-2-(4-(4-methylpiperazin-1-yl)pyridin-2-yl)pyrimidine-4-carboxamide] | Positive (A compound showing >25% inhibition when tested at 100µM concentration is considered as "positive") | 18300 | 7 | > 25 |  | 
COc1ccnc(-c2nc(O)c(O)c(C(=O)NC3CCC(C)(C)CC3)n2)c1 [Compound 77, N-(4,4-dimethylcyclohexyl)-5,6-dihydroxy-2-(4-methoxypyridin-2-yl)pyrimidine-4-carboxamide] | Positive (A compound showing >25% inhibition when tested at 100µM concentration is considered as "positive") | 17300 | 23.5 | > 25 |  | 
C[C@H](NC(=O)c1nc(-c2cc(Cl)ccn2)nc(O)c1O)C1CCCCC1 [Compound 78, (S)-2-(4-chloropyridin-2-yl)-N-(1-cyclohexylethyl)-5,6-dihydroxypyrimidine-4-carboxamide] | Positive (A compound showing >25% inhibition when tested at 100µM concentration is considered as "positive") | 8740 | 18 | > 25 |  | 
Cc1ccnc(-c2nc(O)c(O)c(C(=O)N[C@@H](C)C3CCCCC3)n2)c1 [Compound 79, (S)-N-(1-cyclohexylethyl)-5,6-dihydroxy-2-(4-methylpyridin-2-yl)pyrimidine-4-carboxamide] | Positive (A compound showing >25% inhibition when tested at 100µM concentration is considered as "positive") | 2350 | 41 | > 25 |  | 
C[C@H](NC(=O)c1nc(-c2nccc3ccccc23)nc(O)c1O)C1CCCCC1 [Compound 80, (S)-N-(1-cyclohexylethyl)-5,6-dihydroxy-2-(isoquinolin-1-yl)pyrimidine-4-carboxamide] | Positive (A compound showing >25% inhibition when tested at 100µM concentration is considered as "positive") | 2850 | 11 | > 25 |  | 
C[C@H](NC(=O)c1nc(-c2ccc(N)cn2)nc(O)c1O)C1CCCCC1 [Compound 81, (S)-2-(5-aminopyridin-2-yl)-N-(1-cyclohexylethyl)-5,6-dihydroxypyrimidine-4-carboxamide] | Positive (A compound showing >25% inhibition when tested at 100µM concentration is considered as "positive") | 2290 | 22 | > 25 |  | 
C[C@H](NC(=O)c1nc(-c2nccc3[nH]ccc23)nc(O)c1O)C1CCCCC1 [Compound 86, (S)-N-(1-cyclohexylethyl)-5,6-dihydroxy-2-(1H-pyrrolo[3,2-c]pyridin-4-yl)pyrimidine-4-carboxamide] | Positive (A compound showing >25% inhibition when tested at 100µM concentration is considered as "positive") | > 50000 |  | > 25 | 5.5 | 
CC(NC(=O)c1nc(-c2cc(Cl)ccn2)nc(O)c1O)C1CCC(F)(F)CC1 (stereo not shown) [Compound 87, 2-(4-chloropyridin-2-yl)-N-(1-(4,4-difluorocyclohexyl)ethyl)-5,6-dihydroxypyrimidine-4-carboxamide] | Negative | > 50000 | 41 | > 25 |  | 
